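Each compound was tested at five concentrations against cells in 96-well plates for 48 hours. GI50 marks 50% less growth.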 Activity calls are given as the source filed them. Rule as the data show it: active = GI50 up to about 1.1 µM and inactive = higher.
Key:
Test in all cases: NCI anticancer screen, dose series, 48 h
K562 = test system: K562
TK-10 = test system: TK-10
SF-539 = test system: SF-539
OVCAR-3 = test system: OVCAR-3
NCI-H460 = test system: NCI-H460
CCRF-CEM = test system: CCRF-CEM
M14 = test system: M14
RXF 393 = test system: RXF 393
SW-620 = test system: SW-620
SNB-19 = test system: SNB-19
ACHN = test system: ACHN
UO-31 = test system: UO-31
HOP-62 = test system: HOP-62
NCI-H23 = test system: NCI-H23
KM12 = test system: KM12
HCT-116 = test system: HCT-116
HCT-15 = test system: HCT-15
NCI-H226 = test system: NCI-H226
MDA-MB-231 = test system: MDA-MB-231

SMILES: O=c1oc(=O)c2oc3ccccc3oc1=2
- GI50 (K562): > 100 µM (inactive)
- GI50 (TK-10): > 100 µM (inactive)
- GI50 (SF-539): > 100 µM (inactive)
- GI50 (OVCAR-3): > 100 µM (inactive)
- GI50 (NCI-H460): > 100 µM (inactive)
- GI50 (CCRF-CEM): > 100 µM (inactive)
- GI50 (M14): > 100 µM (inactive)
- GI50 (RXF 393): > 100 µM (inactive)
- GI50 (SW-620): > 100 µM (inactive)
- GI50 (SNB-19): > 100 µM (inactive)
- GI50 (ACHN): > 100 µM (inactive)
- GI50 (UO-31): > 100 µM (inactive)
- GI50 (HOP-62): > 100 µM (inactive)
- GI50 (NCI-H23): > 100 µM (inactive)
- GI50 (KM12): > 100 µM (inactive)
- GI50 (HCT-116): > 100 µM (inactive)
- GI50 (HCT-15): > 100 µM
- GI50 (NCI-H226): > 100 µM (inactive)

SMILES: COc1cc2c(c(OC)c1O)-c1ccc(SC)c(=O)cc1C(NC(C)=O)CC2 (stereo not given)
- GI50 (K562): < 0.01 µM (active)
- GI50 (TK-10): 2.29 µM (inactive)
- GI50 (SF-539): < 0.01 µM (active)
- GI50 (OVCAR-3): < 0.01 µM (active)
- GI50 (NCI-H460): 0.0341 µM (active)
- GI50 (CCRF-CEM): < 0.01 µM (active)
- GI50 (M14): 0.0249 µM (active)
- GI50 (RXF 393): 0.0171 µM (active)
- GI50 (SW-620): < 0.01 µM (active)
- GI50 (SNB-19): 0.019 µM (active)
- GI50 (ACHN): 0.557 µM (active)
- GI50 (UO-31): 5.96 µM (inactive)
- GI50 (HOP-62): 0.0405 µM (active)
- GI50 (NCI-H23): 0.0167 µM (active)
- GI50 (KM12): < 0.01 µM (active)
- GI50 (HCT-116): < 0.01 µM (active)
- GI50 (HCT-15): 1.06 µM
- GI50 (NCI-H226): 0.532 µM (active)

SMILES: CC(=O)Nc1nc2c(=O)c3ccccc3sc2s1
- GI50 (K562): > 100 µM (inactive)
- GI50 (TK-10): 87.3 µM (inactive)
- GI50 (SF-539): > 100 µM (inactive)
- GI50 (OVCAR-3): > 100 µM (inactive)
- GI50 (NCI-H460): > 100 µM (inactive)
- GI50 (MDA-MB-231): > 100 µM (inactive)
- GI50 (CCRF-CEM): > 100 µM (inactive)
- GI50 (M14): > 100 µM (inactive)
- GI50 (RXF 393): > 100 µM (inactive)
- GI50 (SNB-19): > 100 µM (inactive)
- GI50 (ACHN): > 100 µM (inactive)
- GI50 (UO-31): > 100 µM (inactive)
- GI50 (HOP-62): > 100 µM (inactive)
- GI50 (NCI-H23): > 100 µM (inactive)
- GI50 (KM12): > 100 µM (inactive)
- GI50 (HCT-116): > 100 µM (inactive)
- GI50 (HCT-15): > 100 µM
- GI50 (NCI-H226): > 100 µM (inactive)

SMILES: CN1C(=O)N(C)C2(O)c3ccccc3C(=O)C12O (stereo not given)
- GI50 (K562): > 100 µM (inactive)
- GI50 (TK-10): > 100 µM (inactive)
- GI50 (SF-539): > 100 µM (inactive)
- GI50 (OVCAR-3): > 100 µM (inactive)
- GI50 (NCI-H460): > 100 µM (inactive)
- GI50 (CCRF-CEM): > 100 µM (inactive)
- GI50 (M14): > 100 µM (inactive)
- GI50 (RXF 393): > 100 µM (inactive)
- GI50 (SW-620): > 100 µM (inactive)
- GI50 (SNB-19): > 100 µM (inactive)
- GI50 (ACHN): > 100 µM (inactive)
- GI50 (UO-31): > 100 µM (inactive)
- GI50 (HOP-62): > 100 µM (inactive)
- GI50 (NCI-H23): > 100 µM (inactive)
- GI50 (KM12): > 100 µM (inactive)
- GI50 (HCT-116): > 100 µM (inactive)
- GI50 (HCT-15): > 100 µM
- GI50 (NCI-H226): > 100 µM (inactive)

SMILES: OCC(O)COc1c(Cl)ccc(Cl)c1Cl (stereo not given)
- GI50 (K562): > 100 µM (inactive)
- GI50 (TK-10): > 100 µM (inactive)
- GI50 (SF-539): > 100 µM (inactive)
- GI50 (OVCAR-3): > 100 µM (inactive)
- GI50 (NCI-H460): > 100 µM (inactive)
- GI50 (CCRF-CEM): > 100 µM (inactive)
- GI50 (M14): > 100 µM (inactive)
- GI50 (RXF 393): > 100 µM (inactive)
- GI50 (SW-620): > 100 µM (inactive)
- GI50 (SNB-19): > 100 µM (inactive)
- GI50 (ACHN): > 100 µM (inactive)
- GI50 (UO-31): > 100 µM (inactive)
- GI50 (HOP-62): > 100 µM (inactive)
- GI50 (NCI-H23): > 100 µM (inactive)
- GI50 (KM12): > 100 µM (inactive)
- GI50 (HCT-116): > 100 µM (inactive)
- GI50 (HCT-15): > 100 µM
- GI50 (NCI-H226): > 100 µM (inactive)

Reference: ChEMBL document CHEMBL1201862, “PubChem BioAssay data set” (2004)
